According to patent US5929124A, “Antimicrobial diterpenes” (priority 1997, dated 1999):
≈ marks a conversion by molar mass, not a printed value. Where two headings read alike, the source gives them in different places. One block for each compound: values may come before it.

Experiments:
A. fumigatus = assay: Inhibition of Aspergillus spp. culture (broth microdilution, XTT); format: cell-based, Aspergillus fumigatus (strain ATCC#8001); details: 48 hours at 37° C.
Description: (§1) Formulae (i) was isolated as described in Example 1. Plant material was collected in Zimbabwe. A voucher specimen is deposited at the Institute of Pharmacognosy and Phytochemistry, University of Lausanne, Lausanne, Switzerland. Antimicrobial assays are performed by a modification of the broth microdilution susceptibility assay using the tetrazolium salt XTT (Examples 2-6, see summary of results in Table 1 below).
Aspergillus fumigatus (strain ATCC#8001) was subcultured from a refrigerated potato dextrose agar slant (immersed in mineral oil) onto a fresh potato dextrose agar slant. After 72 hours of incubation at 37° C., the slants were filled with 7 mL sterile, cold, distilled water and put on ice for 2 hours. After disrupting the tissue, spores were filtered through sterile gauze using a 30 cc syringe. The resulting mixture was centrifuged for 10 minutes at 2,000 rpm. The supernatant was discarded and the pellet was resuspended in 5 mL sterile, distilled water. […] Growth was assessed spectrophotometrically by measuring the appearance of soluble formazan stain at 450/650 nm using an Emax micro plate reader. Validation of the assay was confirmed by determination of the A. fumigatus minimum inhibitory concentration (MIC) for amphotericin B. MICs were also scored visually.

C. krusei = assay: Inhibition of Candida spp. culture (broth microdilution, XTT); format: cell-based, Candida krusei (strain ATCC #90030); details: Pichia kudriavzevii, 22 hours at 35° C.
Description: as §1
(§2) Candida albicans (strain ATCC #90028), Candida krusei (strain ATCC #90030), and Torulopsis (Candida) glabrata (strain ATCC #6258) were subcultured from cryopreserved stocks onto sabourand dextrose agar plates. Blastoconidia were suspended into RPMI-MOPS (media) and inoculated (500 CFW/well) into 96-well plates containing test compounds in a final volume of 100 μL/well. After 22 hours at 35° C., 25 μL of XTT (2,3-bis(2-methoxy-4-nitro-5-sulfophenyl)-5-[(phenylamino)carbonyl]-2H-tetrazolium hydroxide), (100 μg/mL) with PMS (phenazine methyl sulfate, 5 μM) were added to each well, followed by 2 hours of shaking. Growth was assessed spectrophotometrically by measuring the appearance of soluble formazan stain at 450 nm using an Emax microplate reader.

T. glabrata = assay: as above; format: cell-based, Torulopsis (Candida) glabrata (strain ATCC #6258); details: Nakaseomyces glabratus, 22 hours at 35° C.
Description: as §1, §2

C. albicans = assay: as above; format: cell-based, Candida albicans (strain ATCC #90028); details: for minimum inhibitory concentration (MIC) for known antifungal agents: assay validation, result in words
Description: as §1, §2

S. aureus = assay: Inhibition of Staphylococcus aureus culture; format: cell-based; details: 24 hours at 35° C.
Description: as §1
Strains of Staphylococcus aureus were subcultured from cryopreserved stocks onto sheep blood agar plates (methicillin-sensitive reference strain ATCC #29213. Methicillin-resistant (MRSA) clinical isolate was obtained from Dr. Gary Doern, Director of Clinical Microbiology, University of Massachusetts Medical Center, Worcester, Mass.). Bacteria were suspended in Mueller Hinton broth and inoculated (5×10^4 CFU/well) into 96-well plates containing test compounds in a final volume of 100 μL/well. After 24 hours at 35° C., plates were shaken for 1 minute and turbidity was read manually at 650 nm using a Emax microplate reader (Molecular Devices, Sunnyvale, Calif. The MIC values of vancomycin and gentamicin in this screening assay are determined to be approximately 1 μg/mL and 0.6 μg/mL, respectively, well within the reported ranges (National Committee on Clinical Laboratory Standards Vol. 14, No. 16, 1994, Table 3).

Vero cell proliferation = format: cell-based; details: monkey, vero cells; read-out: IC50 (Vero cell proliferation)
Text: Formula (ii) compounds are those compounds of formula (I) wherein R13 is --O--bonded to R14 and R14 is --CHORa --, Ra being hydrogen, C1-4 alkyl, or formula (a). Formula (ii) compounds may be obtained according to Example 7. […] In general, inhibition of a microbial infection means inhibiting microbial growth, relative to an untreated control, by at least 30%, and preferably by 50% or 75%. Cytotoxicity assays utilized the same dye as a marker of cell viability.

Epidermophyton floccosum = assay: Inhibition of dermatophytes; format: cell-based; details: E. floccosum, 96 hours, 1 isolate
Description: (§3) The in vitro activity of formula (I) against the dermatophytes Trichophyton rubrum, Trichophyton mentagrophytes, and Epidermophyton floccosum was measured. The data were collected after incubating for 96 hours.

[1] = test system: Trichophyton mentagrophytes; assay: Inhibition of dermatophytes; format: cell-based; details: T. mentagrophytes, 96 hours, 13 isolates
Description: as §3

Trichophyton rubrum = assay: Inhibition of dermatophytes; format: cell-based; details: T. rubrum, 96 hours, 10 isolates
Description: as §3

[2] = test system: Candida albicans strain # 64; assay: In vivo efficacy against fluconazole-sensitive candidiasis in mice; parameters: species or system ICR mice infected with Candida albicans
Description: Immunocompetent mice (ICR, Sprague-Dawley, Indianapolis, IN) were infected with a pathogenic strain (# 64) of Candida albicans which is sensitive to fluconazole. After 24 hours, dissemination of infection was shown by organ colony counts (kidney, spleen, and liver) greater than 10^5 CFU. Treatment began 24 hours after infection with the indicated dosage once a day for 10 days. One group received 20 mg/kg of the compound administered via oral gavage in 0.1 mL. The test compound was formulated in 40% polyethyleneglycol (MW 400). Another group received 40 mg/kg of th compound, administered as above. A third group received polyethylene glycol, and the last group received fluconazole dosed orally at 40 mg/kg twice a day.
After 30 days the percent survival in the group treated with fluconazole and the group treated with test compound (40 mg per kg body weight, twice a day) was measured. In addition, the organ fungal load was measured at days 1, 10, and 30.

[3] = Candida albicans, 22 hours at 35° C.
[4] = Staphylococcus aureus, read-out: MIC

Compound: CC1=C(CCO)C(=O)C(O)=C2C1=CC(=O)[C@@H]1C(C)(C)CCC[C@@]21C (relative stereo) [Formula (i), (4bR*,8aR*)-4b,5,6,7,8,8a-hexahydro-4-hydroxy-4b,8,8,1-tetramethyl-2-(2-hydroxy-ethyl) -3,9-phenanthrenedione]
IC50 (A. fumigatus): 6.49 µg/mL | MIC (A. fumigatus): 6.25 µg/mL | IC50 (C. krusei): 0.55 µg/mL | MIC (C. krusei): 1.56 µg/mL | IC50 (T. glabrata): 0.44 µg/mL | MIC (T. glabrata): 1.65 µg/mL | IC50 (C. albicans; [3]): 0.12 µg/mL | MIC (C. albicans; [3]): 0.78 µg/mL | MIC (S. aureus; [4]): 1.56 µg/mL | CC50 (Vero cell proliferation): 12.7 µg/mL | MIC (Epidermophyton floccosum): 4 µg/mL | MIC ([1]; read-out: MIC range): 0.5 to 8 µg/mL | MIC ([1]; read-out: average MIC): 2.7 µg/mL | MIC (Trichophyton rubrum; read-out: MIC range): 2 to 8 µg/mL | MIC (Trichophyton rubrum; read-out: average MIC): 5 µg/mL

Compound: CC1=C(CCO)C(=O)C(O)=C2C1=CC(=O)[C@H]1C(C)(C)CCC[C@]21C (relative stereo) [test compound]
dose response of the effect ([2]; 20 and 40 mg/kg oral gavage): dose-responsive | fungal organ burdens in the kidney, liver, and spleen ([2]; after 10 days, either concentration of the test compound, vs mice treated with fluconazole): less than or equal to one half the burdens in the same organs of mice treated with fluconazole | median survival ([2]; oral gavage once a day for 10 days, vehicle control 7 days, p=0.0018 log rank test): 17.5 days

minimum inhibitory concentration (MIC) for known antifungal agents (C. albicans): within reported ranges
Compound: Nc1nc(=O)[nH]cc1F [5-flucytosine]

Compound: C[C@@H]1[C@H](O)[C@@H](C)/C=C/C=C/C=C/C=C/C=C/C=C/C=C/[C@H](O[C@@H]2O[C@H](C)[C@@H](O)[C@H](N)[C@@H]2O)C[C@@H]2O[C@](O)(C[C@@H](O)C[C@@H](O)[C@H](O)CC[C@@H](O)C[C@@H](O)CC(=O)O[C@H]1C)C[C@H](O)[C@H]2C(=O)O [amphotericin B]
minimum inhibitory concentration (MIC) for known antifungal agents (C. albicans): within reported ranges

Compound: OC(Cn1cncn1)(Cn1cncn1)c1ccc(F)cc1F [fluconazole]
minimum inhibitory concentration (MIC) for known antifungal agents (C. albicans): within reported ranges

minimum inhibitory concentration (MIC) for known antifungal agents (C. albicans): within reported ranges
Compound: C[C@@H]([C@H](N)C(=O)N[C@H](C(=O)O)[C@H]1O[C@@H](n2ccc(=O)[nH]c2=O)[C@H](O)[C@@H]1O)[C@H](O)c1ccc(O)cn1 [nikkomycin Z]

Compound: NC(=O)OC[C@H](O)[C@@H](O)[C@H](N)C(=O)N[C@H](C(=O)O)[C@H]1O[C@@H](n2cc(C(=O)O)c(=O)[nH]c2=O)[C@H](O)[C@@H]1O [polyoxin D]
minimum inhibitory concentration (MIC) for known antifungal agents (C. albicans): within reported ranges

Compound: CN[C@H](CC(C)C)C(=O)N[C@H]1C(=O)N[C@@H](CC(N)=O)C(=O)N[C@H]2C(=O)N[C@H]3C(=O)N[C@H](C(=O)N[C@H](C(=O)O)c4cc(O)cc(O)c4-c4cc3ccc4O)[C@H](O)c3ccc(c(Cl)c3)Oc3cc2cc(c3O[C@@H]2O[C@H](CO)[C@@H](O)[C@H](O)[C@H]2O[C@H]2C[C@](C)(N)[C@H](O)[C@H](C)O2)Oc2ccc(cc2Cl)[C@H]1O [vancomycin]
MIC (S. aureus; [4]): ~1 µg/mL (≈ 0.69 µM)

Compound: gentamicin
MIC (S. aureus): ~0.6 µg/mL
